Reference: US10933126B2, “Clostridium difficile immunogenic compositions and methods of use” (The Board of Regents of the University of Oklahoma, priority 2018, dated 2021)

How the values were obtained:
PSII = test system: PSII; parameters: species or system B6 mice; conditions: mouse, in vivo
[1] = test system: C. difficile VPI 10463 spores; experiment: C. difficile spore challenge assay in immunized B6 mice (body weight); format: in vivo; conditions: 10^4 spores
Method: Non-immunized age- and sex-matched naïve B6 mice were Cefoperazone-treated and then treated with vehicle only (a) or were infected with 10^4 live C. difficile spores (b). Some mice were administered PSII alone followed by a PSII booster one week later (c), or administered vehicle only followed by the PSII booster one week later (d), or administered α-GC alone followed by the PSII booster (e), or administered a PSII and α-GC combination followed by the PSII booster (f), or administered α-GC alone followed by vehicle (g). Animals were then treated with the antibiotic Cefoperazone prior to being infected with 10^4 live C. difficile spores. Graphs show the percent of original weight, which was obtained daily and for the duration indicated. Five mice were used for each group except for the naïve-infected and the PSII/α-GC groups (n=10). […] In the uninfected control group (a), zero counts were detected (limit of detection in assay=10^2).
Immunizations: Mice were immunized s.c. in both flanks with a total of 15 μg or 50 μg PSII or PSII plus 4 μg α-GC, in a 200 μl total volume of sterile low-endotoxin PBS. The amount of α-GC administered has been determined in previous studies to exert a strong CD1d- and NKT-dependent effect on Ab responses. […]
Animal weight was then measured daily. […]

In the case of `CCCCCCCCCCCCCCCCCCCCCCCCCC(=O)N[C@@H](CO[C@H]1O[C@H](CO)[C@H](O)[C@H](O)[C@H]1O)[C@H](O)[C@H](O)CCCCCCCCCCCCCC` [α-GC, (2S,3S,4R)-1-O-(α-D-Galactosyl)-N-hexacosanoyl-2-amino-1,3,4-octadecanetriol], the Anti-PSII titers (PSII) is reported as “could not be detected”, the “Body weight after C. difficile challenge” value ([1]; α-GC alone, w/o a PSII booster (FIG. 6g)) is reported as “did not protect against weight loss” and the “Body weight after C. difficile challenge” value ([1]; α-GC followed one week later with PSII (FIG. 6e)) is reported as “no weight loss was observed”.
